Experimental data taken from patent US11801284B2, “Compositions and methods for treating motor neuron diseases” (The Trustees of Columbia University in the City of New York, priority 2017, dated 2023).

What was measured:
luciferase = luciferase refolding assay (chaperone activity); type: biochemical; conditions: crude yeast lysate from cells transfected with Hspa8^G470R or WT construct; FIG. 4
Excerpt: Expt. 2A: Does the G470R mutation affect Hspa8 chaperone activity? There is a fine balance between the chaperone activity of Hspa8, which involves ATP and the co-chaperone proteins Sgt (small […] tetratricopeptide repeat-containing protein) and CSP (cysteine string protein), and its role in microautophagy, which is effected independently of ATP and the co-chaperones^36. Altering the ratio of Hspa8 with respect to its co-chaperones, or introducing mutations in certain Hspa8 domains, can shift the balance towards or away from microautophagy and thus alter neurotransmission at the NMJ. For instance, mutations in the ATPase domain disrupt chaperone activity but leave the role of Hspa8 in microautophagy intact. In contrast, mutations in the C-terminal domain of Hspa8, which mediate the interaction of the protein with the lysosomal/endosomal membrane, abolish microautophagy but fail to affect the ability of the protein to refold proteins (chaperone activity). […] To test this, we will examine the ability of Hspa8^G470R to refold luciferase. […] The bioluminescence from the luciferase will be assayed, following the addition of Luciferase Assay reagent (Promega), at regular intervals in a luminometer or plate reader. […]

S. cerevisae = test: in vivo microautophagy assay (vacuolar membrane invagination and intraluminal vesicle formation in yeast); type: cell-based; conditions: in vivo study employing WT and Hspa8^G470R proteins
Excerpt: Expt. 2B: Does the G470R mutation affect Hspa8-dependent microautophagy? Hspa8-dependent microautophagy relies on the ability of the protein to bind the lysosomal/endosomal membrane. In so doing, Hspa8 deforms the membrane to form tubules, a phenomenon that can be quantified using a “tubulation” assay^36. […] To test this, we will subject the two proteins and a control, Hspa8^3KA, that fails to deform membranes^36, to the tubulation assay. Essentially, bacterial lysate from E. coli over-expressing the different Hspa8 molecules will be combined with fluorescently labeled giant unilamellar vesicles (GUVs) made from a defined mixture of lipids that roughly mimic synaptic membranes^49, and the ability of the proteins to trigger membrane deformation/tubule formation will be assessed by fluorescence microscopy. To complement these in vitro experiments, we will assess the ability of Hspa8^G470R protein to deform membranes in vivo. For this, the protein and relevant controls will be separately expressed in S. cerevisae and vacuolar membrane invagination and intraluminal vesicle formation determined using a co-expressed Vba1-GFP construct as a marker^50.

SMN = SMN levels in spinal cord tissue of SMA mice by western blotting; type: in vivo; conditions: PND10 SMA mice, western blot, β-tubulin loading control; FIG. 7
Method: PND10 mice of the indicated genotypes were euthanized, and the spinal cord tissue extracted to determine SMN levels by western blotting. β-tubulin was used as a loading control. Band intensities were determined using the NIH ImageJ software.

## Hspa8^G470R: mutant Hsp70 family member protein Hspa8 with G470R missense mutation in the substrate binding domain
luciferase
  chaperone activity (efficiency relative to lysate containing WT Hspa8): only a third as efficient
S. cerevisae
  competence in microautophagy assay: competent
SMN
  SMN level in spinal cord tissue: increases SMN
